In patent publication US20040156869A1, “2-substituted quinazolin-4-ylamine analogues” (Neurogen Corporation, priority 2002, published 2004):

Each molecule was assayed against human capsaicin receptor (VR1) (Homo sapiens, UniProt Q8NER1) (assay: Capsaicin receptor binding assay ([3H]RTX competition, VR1-transfected HEK293 membranes)).
Chain of human capsaicin receptor (VR1) (Q8NER1 whole entry): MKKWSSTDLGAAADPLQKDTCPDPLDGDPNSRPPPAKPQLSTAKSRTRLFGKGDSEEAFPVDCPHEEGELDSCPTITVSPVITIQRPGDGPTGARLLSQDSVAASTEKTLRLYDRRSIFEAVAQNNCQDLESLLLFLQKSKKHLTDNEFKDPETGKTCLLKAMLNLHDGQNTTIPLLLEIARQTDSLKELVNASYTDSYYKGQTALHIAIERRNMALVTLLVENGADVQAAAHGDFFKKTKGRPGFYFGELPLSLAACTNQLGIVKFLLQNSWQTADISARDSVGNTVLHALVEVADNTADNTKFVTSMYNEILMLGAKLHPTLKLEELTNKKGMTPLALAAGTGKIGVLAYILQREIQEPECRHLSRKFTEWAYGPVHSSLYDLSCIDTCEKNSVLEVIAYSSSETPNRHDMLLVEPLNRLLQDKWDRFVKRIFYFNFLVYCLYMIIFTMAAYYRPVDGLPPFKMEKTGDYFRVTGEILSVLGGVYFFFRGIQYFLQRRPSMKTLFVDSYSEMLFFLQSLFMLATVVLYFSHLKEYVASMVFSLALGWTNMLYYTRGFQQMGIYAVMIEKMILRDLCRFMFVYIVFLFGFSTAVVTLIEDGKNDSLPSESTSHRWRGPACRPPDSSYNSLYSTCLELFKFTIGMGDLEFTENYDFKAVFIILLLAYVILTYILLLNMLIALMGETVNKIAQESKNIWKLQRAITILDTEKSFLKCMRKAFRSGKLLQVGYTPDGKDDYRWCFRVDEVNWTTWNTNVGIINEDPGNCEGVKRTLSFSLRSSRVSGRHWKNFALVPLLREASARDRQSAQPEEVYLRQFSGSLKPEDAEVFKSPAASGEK

Ki, < 1000 nM:
CC(C)COCc1nc(Nc2ccc(Cl)cc2)c2ccc(-c3ncccc3Cl)nc2n1 [Compound 260, (4-Chloro-phenyl)-[7-(3-chloro-pyridin-2-yl)-2-isobutoxymethyl-pyrido[2,3-d]pyrimidin-4-yl]-amine]
CC(C)COCc1nc(Nc2ccc(C#N)cc2)c2ccc(-c3ncccc3Cl)nc2n1 [Compound 261, 4-[7-(3-Chloro-pyridin-2-yl)-2-isobutoxymethyl-pyrido[2,3-d]pyrimidin-4-ylamino]-benzonitrile]
CC(=O)c1ccc(Nc2nc(COCC(C)C)nc3nc(-c4ncccc4Cl)ccc23)cc1 [Compound 262, 1-{4-[7-(3-Chloro-pyridin-2-yl)-2-isobutoxymethyl-pyrido(2,3-d]pyrimidin-4-ylamino]-phenyl}-ethanone]
CC(C)COCc1nc(Nc2ccc(N3CCOCC3)cc2)c2ccc(-c3ncccc3Cl)nc2n1 [Compound 263, [7-(3-Chloro-pyridin-2-yl)-2-isobutoxymethyl-pyrido[2,3-d]pyrimidin-4-yl]-(4-morpholin-4-yl-phenyl)-amine]
CCOc1ccc(Nc2nc(COCC(C)C)nc3nc(-c4ncccc4Cl)ccc23)cc1 [Compound 264, [7-(3-Chloro-pyridin-2-yl)-2-isobutoxymethyl-pyrido[2,3-d]pyrimidin-4-yl]-(4-ethoxy-phenyl)-amine]
CCc1ccc(Nc2nc(COCC(C)C)nc3nc(-c4ncccc4Cl)ccc23)cc1 [Compound 265, [7-(3-Chloro-pyridin-2-yl)-2-isobutoxymethyl-pyrido[2,3-d]pyrimidin-4-yl]-(4-ethyl-phenyl)-amine]
CCCc1ccc(Nc2nc(COCC(C)C)nc3nc(-c4ncccc4Cl)ccc23)cc1 [Compound 266, [7-(3-Chloro-pyridin-2-yl)-2-isobutoxymethyl-pyrido[2,3-d]pyrimidin-4-yl]-(4-propyl-phenyl)-amine]
COC(=O)c1ccc(Nc2nc(COCC(C)C)nc3nc(-c4ncccc4Cl)ccc23)cc1 [Compound 267, 4-[7-(3-Chloro-pyridin-2-yl)-2-isobutoxymethyl-pyrido[2,3-d]pyrimidin-4-ylamino]-benzoic acid methyl ester]
CC(C)COCc1nc(Nc2ccc(F)c(F)c2)c2ccc(-c3ncccc3Cl)nc2n1 [Compound 268, [7-(3-Chloro-pyridin-2-yl)-2-isobutoxymethyl-pyrido[2,3-d]pyrimidin-4-yl]-(3,4-difluoro-phenyl)-amine]
Cc1cc(Nc2nc(COCC(C)C)nc3nc(-c4ncccc4Cl)ccc23)ccc1F [Compound 269, [7-(3-Chloro-pyridin-2-yl)-2-isobutoxymethyl-pyrido[2,3-d]pyrimidin-4-yl]-(4-fluoro-3-methyl-phenyl)-amine]
CC(C)COCc1nc(Nc2cccc(C(F)(F)F)c2)c2ccc(-c3ncccc3C(F)(F)F)nc2n1 [Compound 270, [2-Isobutoxymethyl-7-(3-trifluoromethyl-pyridin-2-yl)-pyrido[2,3-d]pyrimidin-4-yl]-(3-trifluoromethyl-phenyl)-amine]
CC(C)COCc1nc(Nc2cccc(Cl)c2)c2ccc(-c3ncccc3C(F)(F)F)nc2n1 [Compound 271, (3-Chloro-phenyl)-[2-isobutoxymethyl-7-(3-trifluoromethyl-pyridin-2-yl)-pyrido[2,3-d]pyrimidin-4-yl]-amine]
CC(C)COCc1nc(Nc2ccc(C#N)cc2)c2ccc(-c3ncccc3C(F)(F)F)nc2n1 [Compound 272, 4-[2-Isobutoxymethyl-7-(3-trifluoromethyl-pyridin-2-yl)-pyrido[2,3-d]pyrimidin-4-ylamino]-benzonitrile]
CC(C)COCc1nc(Nc2ccc(Cl)c(F)c2)c2ccc(-c3ncccc3C(F)(F)F)nc2n1 [Compound 273, (4-Chloro-3-fluoro-phenyl)-[2-isobutoxymethyl-7-(3-trifluoromethyl-pyridin-2-yl)-pyrido[2,3-d]pyrimidin-4-yl]-amine]
Cc1cc(Nc2nc(COCC(C)C)nc3nc(-c4ncccc4C(F)(F)F)ccc23)ccc1Cl [Compound 274, (4-Chloro-3-methyl-phenyl)-[2-isobutoxymethyl-7-(3-trifluoromethyl-pyridin-2-yl)-pyrido[2,3-d]pyrimidin-4-yl]-amine]
CC(C)COCc1nc(Nc2ccc(F)c(Cl)c2)c2ccc(-c3ncccc3C(F)(F)F)nc2n1 [Compound 275, (3-Chloro-4-fluoro-phenyl)-[2-isobutoxymethyl-7-(3-trifluoromethyl-pyridin-2-yl)-pyrido[2,3-d]pyrimidin-4-yl]-amine]
Cc1ccc(Nc2nc(COCC(C)C)nc3nc(-c4ncccc4C(F)(F)F)ccc23)cc1C(F)(F)F [Compound 276, [2-Isobutoxymethyl-7-(3-trifluoromethyl-pyridin-2-yl)-pyrido[2,3-d]pyrimidin-4-yl]-(4-methyl-3-trifluoromethyl-phenyl)-amine]
CC(C)COCc1nc(Nc2ccc(CO)cc2)c2ccc(-c3ncccc3Cl)nc2n1 [Compound 277, {4-[7-(3-Chloro-pyridin-2-yl)-2-isobutoxymethyl-pyrido[2,3-d]pyrimidin-4-ylamino]-phenyl}-methanol]
CCCCOc1ccc(Nc2nc(COCC(C)C)nc3nc(-c4ncccc4Cl)ccc23)cc1 [Compound 278, (4-Butoxy-phenyl)-[7-(3-chloro-pyridin-2-yl)-2-isobutoxymethyl-pyrido[2,3-d]pyrimidin-4-yl]-amine]
CC(C)OCc1nc(Nc2ccc(S(N)(=O)=O)cc2)c2ccc(-c3ncccc3Cl)nc2n1 [Compound 279, 4-{7-(3-Chloro-pyridin-2-yl)-2-isopropoxymethyl-pyrido[2,3-d]pyrimidin-4-ylamino]-benzenesulfonamide]
CCCC(=O)c1ccc(Nc2nc(COCC(C)C)nc3nc(-c4ncccc4Cl)ccc23)cc1 [Compound 280, 1-{4-[7-(3-Chloro-pyridin-2-yl)-2-isobutoxymethyl-pyrido[2,3-d]pyrimidin-4-ylamino]-phenyl}-butan-1-one]
CCOC(=O)Cc1ccc(Nc2nc(COCC(C)C)nc3nc(-c4ncccc4Cl)ccc23)cc1 [Compound 283, {4-[7-(3-Chloro-pyridin-2-yl)-2-isobutoxymethyl-pyrido[2,3-d]pyrimidin-4-ylamino]-phenyl}-acetic acid ethyl ester]
CC(C)COCc1nc(Nc2ccc(CC(=O)O)cc2)c2ccc(-c3ncccc3Cl)nc2n1 [Compound 284, {4-[7-(3-Chloro-pyridin-2-yl)-2-isobutoxymethyl-pyrido[2,3-d]pyrimidin-4-ylamino]-phenyl}-acetic acid]
COc1cc(Nc2nc(COCC(C)C)nc3nc(-c4ncccc4Cl)ccc23)ccc1F [Compound 285, [7-(3-Chloro-pyridin-2-yl)-2-isobutoxymethyl-pyrido[2,3-d]pyrimidin-4-yl]-(4-fluoro-3-methoxy-phenyl)-amine]
OCc1cc2nc(-c3ncccc3C(F)(F)F)ccc2c(Nc2ccc(C(F)(F)F)cc2)n1 [Compound 286, [5-(4-Trifluoromethyl-phenylamino)-2-(3-trifluoromethyl-pyridin-2-yl)-[1,6]naphthyridin-7-yl]-methanol]
